# Assay results as given in publication PMC8151276, “An Integrated Approach toward NanoBRET Tracers for Analysis of GPCR Ligand Engagement” (Molecules, 2021).
# Experiments:
# Format in all cases: binding
# ADRA2B = target: T1, ADRA2B (Homo sapiens, UniProt P18089); test: NanoBRET screen HiBiT-ADRA2B in HEK293; settings: ADRA2B, other tracers/Aminopotentidine (unmodified)
# T1 construct: purchased Promega (in-house HiBiT-GPCR construct library, NanoBRET)
# T1 sequence (P18089 1-450): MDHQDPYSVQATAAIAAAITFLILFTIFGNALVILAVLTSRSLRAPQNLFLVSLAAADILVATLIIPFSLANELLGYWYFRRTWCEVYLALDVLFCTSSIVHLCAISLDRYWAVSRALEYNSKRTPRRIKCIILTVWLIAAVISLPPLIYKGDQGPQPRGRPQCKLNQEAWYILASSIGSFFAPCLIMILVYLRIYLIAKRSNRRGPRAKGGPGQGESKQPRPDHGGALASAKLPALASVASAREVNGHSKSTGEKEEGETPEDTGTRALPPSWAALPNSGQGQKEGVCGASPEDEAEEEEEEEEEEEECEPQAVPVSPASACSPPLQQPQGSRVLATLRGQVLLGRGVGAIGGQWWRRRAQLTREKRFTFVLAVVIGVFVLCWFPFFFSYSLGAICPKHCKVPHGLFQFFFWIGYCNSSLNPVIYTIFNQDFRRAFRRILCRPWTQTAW
# CXCR6 = target: T2, CXCR6 (Homo sapiens, UniProt O00574); test: NanoBRET screen HiBiT-CXCR6 in HEK293
# T2 construct: purchased Promega (in-house HiBiT-GPCR construct library, NanoBRET)
# T2 sequence (O00574 whole entry): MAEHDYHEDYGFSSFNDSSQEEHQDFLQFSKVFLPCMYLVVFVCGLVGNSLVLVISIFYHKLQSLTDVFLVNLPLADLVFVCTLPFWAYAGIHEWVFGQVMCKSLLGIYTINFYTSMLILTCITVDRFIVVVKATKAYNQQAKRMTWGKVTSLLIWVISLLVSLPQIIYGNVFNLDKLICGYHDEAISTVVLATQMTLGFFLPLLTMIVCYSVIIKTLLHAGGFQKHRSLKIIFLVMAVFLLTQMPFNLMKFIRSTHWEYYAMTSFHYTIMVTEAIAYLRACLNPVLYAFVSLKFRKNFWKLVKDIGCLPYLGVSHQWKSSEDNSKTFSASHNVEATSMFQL
# Protocol: (§1) Each tracer candidate was screened across the entire library of HiBiT-GPCR constructs using NanoBRET as the detection modality. As depicted in Figure 4A, the specificity of interactions was evaluated through decrease in BRET due to competitive displacement of a bound tracer by excess parental compound. Each tracer was analyzed for binding to each HiBiT-GPCR fusion in the absence and in the presence of competing parental compound. Briefly, HEK293 cells were transfected with HiBiT-GPCR constructs diluted into promoterless DNA to reduce expression and maximize translocation to the cell surface. Each tracer candidate was then screened at concentrations of 1 μM and 0.1 μM across cells expressing these fusions. Cells were treated for 1.5 h with tracer either alone or in the presence of 20 μM competing parental compound (i.e., control). BRET was measured upon addition of purified LgBiT and subsequent complementation with HiBiT genetically fused to a GPCR. The specificity of interactions was assessed through a decrease in BRET signal due to competitive displacement of the bound tracer. To further gauge the robustness of these interactions, the fold response over the control (i.e., BRETtracer/BRETcontrol) was calculated. We chose a 1.5-fold response, which translates to ≥7-fold signal over noise as the minimal threshold required to score an interaction as positive. […]. Below we highlight the screening results obtained for our exemplary fluorescent tracers based on Clozapine, Amitriptyline and AZD1283.
# (§2) HiBiT-GPCR DNA constructs were diluted in 10 mM Tris pH 8 to a final concentration of 0.01 μg/μL, arrayed in 96-well plates and stored at −20 °C. For transfection, HEK293 cells were suspended in Opti-MEM (without phenol red) supplemented with 2% fetal bovine serum (Seradigm) and 100 units/mL penicillin–streptomycin (Gibco) at a final concentration of 220,000 cells/mL and dispensed into white 96-well plates at 90 μL/well. Subsequent transfections and screens were carried using an Agilent Bravo Automated Liquid Handling Platform. First, the 96-well HiBiT DNA arrays were diluted 25-fold in Opti-MEM (without serum or phenol red) to a final concentration of 0.0004 μg/μL and 20 μL of the diluted DNAs were transferred into new 96-well plates. Next, promoterless carrier DNA (1 μg/μL) was diluted 25-fold (0.04 μg/μL) and then dispensed into the diluted arrays at 20 μL/well. Following brief mixing, Viafect transfection reagent (Promega) diluted 16-fold into Opti-MEM was dispensed into the plates at 40 μL/well. After mixing by pipetting, plates were incubated for 10 min on the pipetting station deck. The DNA-transfection reagent complexes were then added to plates containing cells. To facilitate the screen, 10 μL of DNA-transfection reagent complexes were added in duplicates to the top 4 and bottom 4 rows, resulting in two identical 48-well arrays per plate. Plates with transfected cells were incubated for 18–20 h at 37 °C/5% CO2. A screen of each tracer across the entire library using two different concentrations requires duplicate plates of transfected cells. Depending on the number of tracers being screened, transfections can be scaled up using the same ratios. The next day, for each tracer, four 20× screening solutions in tracer dilution buffer (Promega) were prepared: two duplicates at final concentration of 20 μM and two duplicates at a final concentration of 2 μM. A competing unmodified compound was added to one of each duplicate at a final concentration of 400 μM. The four resulting solutions were diluted 4-fold in Opti-MEM without serum or phenol red to generate 5× solutions (5 µM and 0.5 µM tracer +/− 100 μM competing compound). To screen the library, a BioTek MultiFlo FX liquid dispenser was used to dispense 22.5 µL of tracer solution to the top 4 rows and 22.5 µL tracer + competing compound solution to the 4 bottom rows. Plates were briefly mixed on an orbital shaker and incubated for 1.5 h at room temperature. […]
# TACR2 = target: T3, TACR2 (Homo sapiens, UniProt P21452); test: NanoBRET screen HiBiT-TACR2 in HEK293
# T3 construct: purchased Promega (in-house HiBiT-GPCR construct library, NanoBRET)
# T3 sequence (P21452 1-398): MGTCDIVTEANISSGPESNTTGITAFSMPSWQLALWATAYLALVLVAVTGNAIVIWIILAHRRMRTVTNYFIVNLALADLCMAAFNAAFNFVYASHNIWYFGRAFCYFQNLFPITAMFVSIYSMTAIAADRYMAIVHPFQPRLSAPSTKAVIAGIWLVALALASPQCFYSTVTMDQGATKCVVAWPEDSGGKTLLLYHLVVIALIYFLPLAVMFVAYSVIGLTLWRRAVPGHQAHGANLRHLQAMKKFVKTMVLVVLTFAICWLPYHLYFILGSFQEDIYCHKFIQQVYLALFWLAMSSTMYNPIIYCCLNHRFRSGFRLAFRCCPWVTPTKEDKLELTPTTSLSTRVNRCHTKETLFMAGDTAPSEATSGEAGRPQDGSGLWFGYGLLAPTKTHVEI
# Protocol: as §1, §2
# CXCR3 = target: T4, CXCR3 (Homo sapiens, UniProt P49682); test: NanoBRET screen HiBiT-CXCR3 in HEK293
# T4 construct: purchased Promega (in-house HiBiT-GPCR construct library, NanoBRET)
# T4 sequence (P49682 1-368): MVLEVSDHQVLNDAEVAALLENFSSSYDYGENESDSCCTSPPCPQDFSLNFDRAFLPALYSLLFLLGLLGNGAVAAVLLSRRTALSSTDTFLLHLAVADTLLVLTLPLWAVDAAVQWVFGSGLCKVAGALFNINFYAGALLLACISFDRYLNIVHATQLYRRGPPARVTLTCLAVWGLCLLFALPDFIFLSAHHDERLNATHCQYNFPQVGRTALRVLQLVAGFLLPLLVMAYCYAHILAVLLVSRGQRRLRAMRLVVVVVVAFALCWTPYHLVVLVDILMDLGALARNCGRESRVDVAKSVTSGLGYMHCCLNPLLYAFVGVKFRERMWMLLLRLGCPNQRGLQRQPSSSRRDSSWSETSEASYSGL
# Protocol: as §1, §2
# NPBWR2 = target: T5, NPBWR2 (Homo sapiens, UniProt P48146); test: NanoBRET screen HiBiT-NPBWR2 in HEK293
# T5 construct: purchased Promega (in-house HiBiT-GPCR construct library, NanoBRET)
# T5 sequence (P48146 whole entry): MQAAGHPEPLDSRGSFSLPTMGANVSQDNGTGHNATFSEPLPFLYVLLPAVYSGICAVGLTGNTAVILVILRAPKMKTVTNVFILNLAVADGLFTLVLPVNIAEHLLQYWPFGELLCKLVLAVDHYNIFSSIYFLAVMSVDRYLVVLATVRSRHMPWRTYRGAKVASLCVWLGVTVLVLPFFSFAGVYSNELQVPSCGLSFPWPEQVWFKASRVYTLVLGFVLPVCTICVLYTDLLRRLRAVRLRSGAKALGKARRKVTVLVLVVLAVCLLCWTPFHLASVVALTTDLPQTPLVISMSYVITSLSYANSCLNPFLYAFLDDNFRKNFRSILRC
# Protocol: as §1, §2
# [1] = tracer at 0.1μM, listed as amitriptyline-b-2-NB590
# [2] = tracer at 1μM, listed as amitriptyline-b-2-NB590
structure (smiles),measurement,setting,value
N#CN/C(=N\CCNC(=O)c1ccc(N)cc1)NCCCOc1cccc(CN2CCCCC2)c1 [Aminopotentidine (unmodified)],NanoBRET Fold Response,ADRA2B; 0.1μM,1.49
same,NanoBRET Fold Response,ADRA2B; 1μM,1.60
CN(C)CCC=C1c2ccccc2CCc2ccc(C(=O)NCCNC(=O)CCOCCOCCOCCOCCNC(=O)CCc3ccc4n3[B-](F)(F)[N+]3=C(c5ccc[nH]5)C=CC3=C4)cc21 [Amitriptyline-a-2-NB590],NanoBRET Fold Response,CXCR6; tracer at 0.1μM,1.07
same,NanoBRET Fold Response,CXCR6; tracer at 1μM,0.94
same,NanoBRET Fold Response,TACR2; tracer at 0.1μM,1.10
same,NanoBRET Fold Response,TACR2; tracer at 1μM,1.13
same,NanoBRET Fold Response,CXCR3; tracer at 0.1μM,1.00
same,NanoBRET Fold Response,CXCR3; tracer at 1μM,0.97
CN(C)CCC=C1c2ccccc2CCc2ccc(C(=O)NCCNC(=O)CCOCCOCCOCCOCCNC(=O)CCc3ccc4n3[B-](F)(F)[N+]3=C(c5ccc[nH]5)C=CC3=C4)cc21 [Amitriptyline-b-2-NB590],NanoBRET Fold Response,NPBWR2; tracer at 0.1μM,1.01
same,NanoBRET Fold Response,NPBWR2; tracer at 1μM,0.95
same,NanoBRET Fold Response,CXCR6; [1],0.95
same,NanoBRET Fold Response,CXCR6; [2],1.02
same,NanoBRET Fold Response,TACR2; [1],0.86
same,NanoBRET Fold Response,TACR2; [2],1.17
same,NanoBRET Fold Response,CXCR3; [1],1.05
same,NanoBRET Fold Response,CXCR3; [2],0.98
CN(CCC=C1c2ccccc2CCc2ccccc21)C(=O)CCOCCOCCOCCOCCNC(=O)CCc1ccc2n1[B-](F)(F)[N+]1=C(c3ccc[nH]3)C=CC1=C2 [Amitriptyline-e-2-NB590],NanoBRET Fold Response,CXCR6; tracer at 1μM,0.98
same,NanoBRET Fold Response,CXCR3; tracer at 1μM,1.22
CN1CCN(C2=Nc3cc(Cl)ccc3Nc3ccc(CNC(=O)CCOCCOCCOCCOCCNC(=O)CCc4ccc5n4[B-](F)(F)[N+]4=C(c6ccc[nH]6)C=CC4=C5)cc32)CC1 [Clozapine-b-2-NB590],NanoBRET Fold Response,"NPBWR2; NPBWR2, 0.1μM tracer",0.99
same,NanoBRET Fold Response,"NPBWR2; NPBWR2, 1μM tracer",1.08
same,NanoBRET Fold Response,"CXCR6; CXCR6, 0.1μM tracer",1.01
same,NanoBRET Fold Response,"CXCR6; CXCR6, 1μM tracer",1.00
same,NanoBRET Fold Response,"TACR2; TACR2, 0.1μM tracer",0.97
same,NanoBRET Fold Response,"CXCR3; CXCR3, 0.1μM tracer",0.97
same,NanoBRET Fold Response,"CXCR3; CXCR3, 1μM tracer",0.94
